{"source": "patent US20260001914A1", "about": "“MACROCYCLIC PEPTIDES TARGETING KRAS” (Merck Sharp & Dohme LLC, priority 2022, published 2026)", "note": "pEC50: −log10 of the molar value. *1 amine or outer side, *2 acyl side, *3 side chain or, on linkers, in order; H or OH if unused. Where a SMILES comes first, the peptide text is derived from it. Bridges are numbered along the chain shown (N, C = ends). [ ]: non-standard residue; d: D form. Phe(4-guanidino) = N=C(N)Nc1ccc(C[C@H](N)C(=O)O)cc1; Ala(pyrimidin-5-yl) = N[C@@H](Cc1cncnc1)C(=O)O; Phe(4-CH2NH2) = NCc1ccc(C[C@H](N)C(=O)O)cc1; X7 = C[C@H](N[*:1])C12CC(C(=O)[*:2])(C1)C2; X40 = CC(C)(F)C[C@H](N[*:1])C(=O)[*:2]; 1Nal = N[C@@H](Cc1cccc2ccccc12)C(=O)O; Ala(4-THP) = N[C@@H](CC1CCOCC1)C(=O)O; Ala(cPent) = N[C@@H](CC1CCCC1)C(=O)O; Phe(2-F) = N[C@@H](Cc1ccccc1F)C(=O)O; NMe3Pal = CN[C@@H](Cc1cccnc1)C(=O)O; X1 = O=C(C12CC(CN[*:1])(C1)C2)[*:2]; X17 = O=C([C@H](CCCCF)N[*:1])[*:2]; NMeF = CN[C@@H](Cc1ccccc1)C(=O)O; PhLac = O=C(O)[C@@H](O)Cc1ccccc1; X4 = O=C([C@H](CCCF)N[*:1])[*:2]; 3Pal = N[C@@H](Cc1cccnc1)C(=O)O; 4Pal = N[C@@H](Cc1ccncc1)C(=O)O; d(αMeC) = C[C@@](N)(CS)C(=O)O; Cba = N[C@@H](CC1CCC1)C(=O)O; hLeu = CC(C)CC[C@H](N)C(=O)O; NMeA = CN[C@@H](C)C(=O)O; Nle = CCCC[C@H](N)C(=O)O; Nva = CCC[C@H](N)C(=O)O"}
{"molecular_target": "KRAS-G12D protein (Homo sapiens, UniProt P01116, G12D)", "sequence (P01116 1-188 isoform P01116-2 G12D)": "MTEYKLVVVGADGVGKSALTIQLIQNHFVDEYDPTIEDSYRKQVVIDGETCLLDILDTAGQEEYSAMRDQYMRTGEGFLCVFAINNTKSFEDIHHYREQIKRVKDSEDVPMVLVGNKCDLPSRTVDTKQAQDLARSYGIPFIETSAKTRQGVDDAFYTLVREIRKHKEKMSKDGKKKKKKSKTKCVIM", "experiment": "SOS-mediated nucleotide exchange assay (BODIPY-GDP / Tb-streptavidin TR-FRET)", "format": "biochemical"}
{"smiles": "CCCC[C@@H]1NC(=O)[C@H](Cc2cncnc2)NC(=O)[C@H](C)N(C)C(=O)[C@H](Cc2ccccc2)OC(=O)C23CC(C2)(C3)[C@H](C)NC(=O)[C@H](Cc2cccnc2)N(C)C(=O)[C@H](CCCC)NC(=O)[C@H](Cc2ccccc2F)NC1=O", "note": "[compound 121, cyclo(FLac-NMeA-PyrimAla-Nle-Phe2F-Nle-NMe3Pal-SMeamBCP)] (cyclo([NMe3Pal][X7][PhLac][NMeA][Ala(pyrimidin-5-yl)][Nle][Phe(2-F)][Nle]))", "pEC50": 7.48}
{"smiles": "CCCC[C@@H]1NC(=O)[C@H](Cc2cccnc2)NC(=O)[C@H](C)N(C)C(=O)[C@H](Cc2ccccc2)OC(=O)C23CC(CNC(=O)[C@H](Cc4cccnc4)N(C)C(=O)[C@H](CCC(C)C)NC(=O)[C@H](Cc4ccccc4F)NC1=O)(C2)C3", "note": "[compound 124, cyclo(FLac-NMeA-3Pal-Nle-Phe2F-hL-NMe3Pal-amBCP)] (cyclo([3Pal][Nle][Phe(2-F)][hLeu][NMe3Pal][X1][PhLac][NMeA]))", "pEC50": 8.66}
{"smiles": "CCCC[C@@H]1NC(=O)[C@H](Cc2ccccc2F)NC(=O)[C@H](CC2CCCC2)NC(=O)[C@H](Cc2cncnc2)NC(=O)[C@H](C)N(C)C(=O)[C@H](Cc2ccccc2)OC(=O)C23CC(CNC(=O)[C@H](Cc4cccnc4)N(C)C1=O)(C2)C3", "note": "[compound 126, cyclo(FLac-NMeA-PyrimAla-cPeA-Phe2F-Nle-NMe3Pal-amBCP)] (cyclo([Ala(cPent)][Phe(2-F)][Nle][NMe3Pal][X1][PhLac][NMeA][Ala(pyrimidin-5-yl)]))", "pEC50": 7.65}
{"smiles": "CCCC[C@@H]1NC(=O)[C@H](Cc2ccccc2F)NC(=O)[C@H](CCC(C)C)NC(=O)[C@H](Cc2cncnc2)NC(=O)[C@H](C)N(C)C(=O)[C@H](Cc2ccccc2)OC(=O)C23CC(CNC(=O)[C@H](Cc4cccnc4)N(C)C1=O)(C2)C3", "note": "[compound 127, cyclo(FLac-NMeA-PyrimAla-hL-Phe2F-Nle-NMe3Pal-amBCP)] (cyclo([NMe3Pal][X1][PhLac][NMeA][Ala(pyrimidin-5-yl)][hLeu][Phe(2-F)][Nle]))", "pEC50": 6.64}
{"smiles": "C[C@H]1C(=O)N[C@@H](Cc2cncnc2)C(=O)N[C@@H](CCCCF)C(=O)N[C@@H](Cc2ccccc2F)C(=O)N[C@@H](CCCCF)C(=O)N(C)[C@@H](Cc2ccccc2)C(=O)NCC23CC(C2)(C3)C(=O)O[C@@H](Cc2ccccc2)C(=O)N1C", "note": "[compound 128, cyclo(FLac-NMeA-PyrimAla-NleF-Phe2F-NleF-NMeF-amBCP)] (cyclo([NMeA][Ala(pyrimidin-5-yl)][X17][Phe(2-F)][X17][NMeF][X1][PhLac]))", "pEC50": 7.43}
{"smiles": "CCCC[C@@H]1NC(=O)[C@H](Cc2ccccc2F)NC(=O)[C@H](CC(C)C)NC(=O)[C@H](Cc2cncnc2)NC(=O)[C@H](C)N(C)C(=O)[C@H](Cc2ccccc2)OC(=O)C23CC(CNC(=O)[C@H](Cc4cccnc4)N(C)C1=O)(C2)C3", "note": "[compound 129, cyclo(FLac-NMeA-PyrimAla-L-Phe2F-Nle-NMe3Pal-amBCP)] (cyclo([PhLac][NMeA][Ala(pyrimidin-5-yl)]L[Phe(2-F)][Nle][NMe3Pal][X1]))", "pEC50": 8.36}
{"smiles": "CCCC[C@@H]1NC(=O)[C@H](Cc2ccccc2F)NC(=O)[C@H](CCCCF)NC(=O)[C@H](Cc2cncnc2)NC(=O)[C@H](C)N(C)C(=O)[C@H](Cc2ccccc2)OC(=O)C23CC(CNC(=O)[C@H](Cc4ccccc4)N(C)C1=O)(C2)C3", "note": "[compound 130, cyclo(FLac-NMeA-PyrimAla-NleF-Phe2F-Nle-NMeF-amBCP)] (cyclo([NMeA][Ala(pyrimidin-5-yl)][X17][Phe(2-F)][Nle][NMeF][X1][PhLac]))", "pEC50": 8.61}
{"smiles": "CCCC[C@@H]1NC(=O)[C@H](Cc2cncnc2)NC(=O)[C@H](C)N(C)C(=O)[C@H](Cc2ccccc2)OC(=O)C23CC(CNC(=O)[C@H](Cc4ccccc4)N(C)C(=O)[C@H](CCCCF)NC(=O)[C@H](Cc4ccccc4F)NC1=O)(C2)C3", "note": "[compound 131, cyclo(FLac-NMeA-PyrimAla-Nle-Phe2F-NleF-NMeF-amBCP)] (cyclo([NMeA][Ala(pyrimidin-5-yl)][Nle][Phe(2-F)][X17][NMeF][X1][PhLac]))", "pEC50": 8.00}
{"smiles": "CCCC[C@@H]1NC(=O)[C@H](Cc2cncnc2)NC(=O)[C@H](C)N(C)C(=O)[C@H](Cc2ccccc2)OC(=O)C23CC(CNC(=O)[C@H](Cc4ccccc4)N(C)C(=O)[C@H](CCC(C)C)NC(=O)[C@H](Cc4ccccc4F)NC1=O)(C2)C3", "note": "[compound 132, cyclo(FLac-NMeA-PyrimAla-Nle-Phe2F-hL-NMeF-amBCP)] (cyclo([NMeA][Ala(pyrimidin-5-yl)][Nle][Phe(2-F)][hLeu][NMeF][X1][PhLac]))", "pEC50": 8.10}
{"smiles": "CC(C)CC[C@@H]1NC(=O)[C@H](Cc2ccccc2F)NC(=O)[C@H](CCCF)NC(=O)[C@H](Cc2cncnc2)NC(=O)[C@H](C)N(C)C(=O)[C@H](Cc2ccccc2)OC(=O)C23CC(CNC(=O)[C@H](Cc4ccccc4)N(C)C1=O)(C2)C3", "note": "[compound 133, cyclo(FLac-NMeA-PyrimAla-NvaF-Phe2F-hL-NMeF-amBCP)] (cyclo([NMeA][Ala(pyrimidin-5-yl)][X4][Phe(2-F)][hLeu][NMeF][X1][PhLac]))", "pEC50": 8.11}
{"smiles": "CC(C)CC[C@@H]1NC(=O)[C@H](Cc2ccccc2F)NC(=O)[C@H](CC2CCC2)NC(=O)[C@H](Cc2cncnc2)NC(=O)[C@H](C)N(C)C(=O)[C@H](Cc2ccccc2)OC(=O)C23CC(CNC(=O)[C@H](Cc4ccccc4)N(C)C1=O)(C2)C3", "note": "[compound 134, cyclo(FLac-NMeA-PyrimAla-cBuA-Phe2F-hL-NMeF-amBCP)] (cyclo([Cba][Phe(2-F)][hLeu][NMeF][X1][PhLac][NMeA][Ala(pyrimidin-5-yl)]))", "pEC50": 8.19}
{"smiles": "CC(C)CC[C@@H]1NC(=O)[C@H](Cc2ccccc2F)NC(=O)[C@H](CC2CCCC2)NC(=O)[C@H](Cc2cncnc2)NC(=O)[C@H](C)N(C)C(=O)[C@H](Cc2ccccc2)OC(=O)C23CC(CNC(=O)[C@H](Cc4ccccc4)N(C)C1=O)(C2)C3", "note": "[compound 135, cyclo(FLac-NMcA-PyrimAla-cPeA-Phe2F-hL-NMeF-amBCP)] (cyclo([Ala(cPent)][Phe(2-F)][hLeu][NMeF][X1][PhLac][NMeA][Ala(pyrimidin-5-yl)]))", "pEC50": 8.38}
{"smiles": "CC(C)CC[C@@H]1NC(=O)[C@H](Cc2ccccc2F)NC(=O)[C@H](CC(C)(C)F)NC(=O)[C@H](Cc2cncnc2)NC(=O)[C@H](C)N(C)C(=O)[C@H](Cc2ccccc2)OC(=O)C23CC(CNC(=O)[C@H](Cc4ccccc4)N(C)C1=O)(C2)C3", "note": "[compound 136, cyclo(FLac-NMeA-PyrimAla-Leu3F-Phe2F-hL-NMeF-amBCP)] (cyclo([NMeA][Ala(pyrimidin-5-yl)][X40][Phe(2-F)][hLeu][NMeF][X1][PhLac]))", "pEC50": 6.94}
{"smiles": "CCCC[C@@H]1NC(=O)[C@H](Cc2ccc(O)cc2)NC(=O)[C@H](CC2CCCCC2)NC(=O)[C@H](CCCCN)NC(=O)[C@H](CCCNC(=N)N)NC(=O)[C@H](Cc2cccc3ccccc23)NC(=O)CSC[C@H](C(N)=O)NC(=O)[C@H](Cc2ccccc2)N(C)C1=O", "note": "[compound 139, cyclo(INal-R-K-Cha-Y-Nle-NMeF-dCl-ClAc)]", "pEC50": 5.22}
{"smiles": "CCCC[C@@H]1NC(=O)[C@H](Cc2ccncc2)NC(=O)[C@H](CCCNC(=N)N)NC(=O)[C@H](Cc2cccc3ccccc23)NC(=O)CSC[C@H](C(=O)O)NC(=O)[C@H](Cc2ccccc2)N(C)C(=O)[C@H](CCC)NC(=O)[C@H](Cc2ccc(O)cc2)NC1=O", "note": "[compound 140, cyclo(INal-R-4Pal-Nle-Y-Nva-NMeF-dC-ClAc)] ({CH2CO}-[1Nal]R[4Pal][Nle]Y[Nva][NMeF][dC]-OH; thioether N-8)", "pEC50": 5.93}
{"smiles": "CCCC[C@@H]1NC(=O)[C@H](Cc2ccc(NC(=N)N)cc2)NC(=O)[C@H](CCCNC(=N)N)NC(=O)[C@H](Cc2cccc3ccccc23)NC(=O)CSC[C@H](C(=O)O)NC(=O)[C@H](Cc2ccccc2)N(C)C(=O)[C@H](CCCC)NC(=O)[C@H](Cc2ccc(O)cc2)NC1=O", "note": "[compound 141, cyclo(INal-R-Phe4Gn-Nle-Y-Nle-NMeF-dC-ClAc)] ({CH2CO}-[1Nal]R[Phe(4-guanidino)][Nle]Y[Nle][NMeF][dC]-OH; thioether N-8)", "pEC50": 7.78}
{"smiles": "CCCC[C@@H]1NC(=O)[C@H](Cc2ccc(NC(=N)N)cc2)NC(=O)[C@H](CCCNC(=N)N)NC(=O)[C@H](Cc2cccc3ccccc23)NC(=O)CSC[C@](C)(C(=O)O)NC(=O)[C@H](Cc2ccccc2)N(C)C(=O)[C@H](CCCC)NC(=O)[C@H](Cc2ccc(O)cc2)NC1=O", "note": "[compound 143, cyclo(INal-R-Phe4Gn-Nlc-Y-Nle-NMeF-daMeC-ClAc)] ({CH2CO}-[1Nal]R[Phe(4-guanidino)][Nle]Y[Nle][NMeF][d(αMeC)]-OH; thioether N-8)", "pEC50": 6.24}
{"smiles": "CCCC[C@@H]1NC(=O)[C@H](Cc2ccc(CN)cc2)NC(=O)[C@H](CCCNC(=N)N)NC(=O)[C@H](Cc2cccc3ccccc23)NC(=O)CSC[C@](C)(C(=O)O)NC(=O)[C@H](Cc2ccccc2)N(C)C(=O)[C@H](CCCC)NC(=O)[C@H](Cc2ccc(O)cc2)NC1=O", "note": "[compound 144, cyclo(1Nal-R-Phe4CH2NH2-Nle-Y-Nle-NMeF-daMeC-ClAc)] ({CH2CO}-[1Nal]R[Phe(4-CH2NH2)][Nle]Y[Nle][NMeF][d(αMeC)]-OH; thioether N-8)", "pEC50": 5.84}
{"smiles": "CCCC[C@@H]1NC(=O)[C@H](Cc2ccc(CNC(C)=O)cc2)NC(=O)[C@H](CCCNC(=N)N)NC(=O)[C@H](Cc2cccc3ccccc23)NC(=O)CSC[C@](C)(C(=O)O)NC(=O)[C@H](Cc2ccccc2)N(C)C(=O)[C@H](CCCC)NC(=O)[C@H](Cc2ccc(O)cc2)NC1=O", "note": "[compound 145, cyclo(INal-R-Phe4CH2NHAc-Nle-Y-Nle-NMeF-daMeC-ClAc)] ({CH2CO}-[1Nal]R[Phe(4-CH2NH2)](Ac)[Nle]Y[Nle][NMeF][d(αMeC)]-OH; thioether N-8)", "pEC50": 5.15}
{"smiles": "CCCC[C@@H]1NC(=O)[C@H](Cc2ccc(O)cc2)NC(=O)[C@H](CC2CCOCC2)NC(=O)[C@H](Cc2ccc(NC(=N)N)cc2)NC(=O)[C@H](CCCNC(=N)N)NC(=O)[C@H](Cc2cccc3ccccc23)NC(=O)CSC[C@H](C(=O)O)NC(=O)[C@H](Cc2ccccc2)N(C)C1=O", "note": "[compound 147, cyclo(INal-R-Phe4Gn-AlaTHP4-Y-Nle-NMeF-dC-ClAc)] ({CH2CO}-[1Nal]R[Phe(4-guanidino)][Ala(4-THP)]Y[Nle][NMeF][dC]-OH; thioether N-8)", "pEC50": 6.29}
